# Where a SMILES comes first, the peptide text is derived from it.
# Key:
# Staphylococcus aureus [1] = test: Antibacterial activity against Staphylococcus aureus ATCC 25923 incubated for 18 to 24 hrs by broth microdilution method; format: functional
# Staphylococcus aureus [2] = test: Antibacterial activity against Staphylococcus aureus ATCC 29213 incubated for 18 to 24 hrs by broth microdilution method; format: functional
# Salmonella typhimurium = test: Antibacterial activity against Salmonella enterica serovar typhimurium C77-31 incubated for 18 to 24 hrs by broth microdilution method; format: functional, Salmonella enterica subsp. enterica serovar Typhimurium
# Escherichia coli [3] = test: Antibacterial activity against Escherichia coli UB1005 incubated for 18 to 24 hrs by broth microdilution method; format: functional
# Escherichia coli [4] = test: Antibacterial activity against Escherichia coli ATCC 25922 incubated for 18 to 24 hrs by broth microdilution method; format: functional
# [5] = test system: Staphylococcus epidermidis; test: Antibacterial activity against Staphylococcus epidermidis ATCC 12228 incubated for 18 to 24 hrs by broth microdilution method; format: functional
# Erythrocyte = test: Haemolytic activity in human erythrocytes assessed as lowest concentration causing 5% hemolysis after 1 hr; format: ADME, cell-based
# [6] = Therapeutic index, ratio of MHC for human RBC to geometric mean of peptide MIC for Escherichia coli ATCC 25922; format: toxicity; conditions: pooled result: one value given for 6 cell lines, strains, targets or settings, read-out: TI
# [7] = Cytotoxicity against mouse RAW264.7 cells assessed as cell survival at <= 32 uM after 24 hrs by MTT assay relative to control; format: cell-based; conditions: RAW264.7 cells, up to 32 µM, read-out: Activity
# Escherichia coli [8] = test: Antibacterial activity against Escherichia coli 20411 clinical isolate incubated for 18 to 24 hrs by broth microdilution method; format: functional
# Acinetobacter baumannii [9] = test: Antibacterial activity against Acinetobacter baumannii AB1901 clinical isolate incubated for 18 to 24 hrs by broth microdilution method; format: functional
# Acinetobacter baumannii [10] = test: Antibacterial activity against Acinetobacter baumannii AB1902 clinical isolate incubated for 18 to 24 hrs by broth microdilution method; format: functional
# Pseudomonas aeruginosa = test: Antibacterial activity against Pseudomonas aeruginosa 25349 clinical isolate incubated for 18 to 24 hrs by broth microdilution method; format: functional
# Staphylococcus aureus [11] = test: Antibacterial activity against Staphylococcus aureus 11011 incubated for 18 to 24 hrs by broth microdilution method; format: functional
# [12] = Cytotoxicity against mouse RAW264.7 cells assessed as cell survival at < 32 uM after 24 hrs by MTT assay; format: cell-based; conditions: read-out: Activity
Structure (SMILES),MIC (Staphylococcus aureus [1]) [µM],MIC (Staphylococcus aureus [2]) [µM],MIC (Salmonella typhimurium) [µM],MIC (Escherichia coli [3]) [µM],MIC (Escherichia coli [4]) [µM],MIC [5] [µM],MHC (Erythrocyte) [µM],selectivity ratio [6],viability at 24 h [7] [%],MIC (Escherichia coli [8]) [µM],MIC (Acinetobacter baumannii [9]) [µM],MIC (Acinetobacter baumannii [10]) [µM],MIC (Pseudomonas aeruginosa) [µM],MIC (Staphylococcus aureus [11]) [µM],viability at 24 h [12] [%]
CC(C)C[C@H](NC(=O)[C@H](CCCNC(=N)N)NC(=O)[C@H](CCCCN)NC(=O)[C@H](Cc1c[nH]c2ccccc12)NC(=O)[C@@H](NC(=O)[C@H](CCCCN)NC(=O)[C@H](CCCCN)NC(=O)[C@H](CCCNC(=N)N)NC(=O)[C@H](CC(C)C)NC(=O)[C@H](CCCNC(=N)N)NC(=O)[C@@H](N)CCCNC(=N)N)[C@@H](C)O)C(=O)N[C@@H](Cc1c[nH]c2ccccc12)C(N)=O (H-RRLRKKTWKRLW-NH2),> 128,64,64,32,16,64,> 128,4.49,≥ 70,–,–,–,–,–,–
CC(C)[C@H](NC(=O)[C@H](CCCNC(=N)N)NC(=O)[C@H](Cc1c[nH]c2ccccc12)NC(=O)[C@H](CCCNC(=N)N)NC(=O)[C@@H](NC(=O)[C@H](CCCNC(=N)N)NC(=O)[C@H](Cc1c[nH]c2ccccc12)NC(=O)[C@H](CCCNC(=N)N)NC(=O)[C@@H](NC(=O)[C@H](CCCNC(=N)N)NC(=O)[C@@H](N)Cc1c[nH]c2ccccc12)C(C)C)C(C)C)C(=O)N[C@@H](CCCNC(=N)N)C(N)=O (H-WRVRWRVRWRVR-NH2),2,1,4,2,4,2,> 128,114,–,2,2,2,4,1,> 90
CC(C)C[C@H](NC(=O)[C@H](CCCNC(=N)N)NC(=O)[C@H](CCCCN)NC(=O)[C@H](CCCNC(=N)N)NC(=O)[C@@H](NC(=O)[C@H](Cc1c[nH]c2ccccc12)NC(=O)[C@H](CCCCN)NC(=O)[C@H](CCCNC(=N)N)NC(=O)[C@H](CC(C)C)NC(=O)[C@H](Cc1c[nH]c2ccccc12)NC(=O)[C@@H](N)CCCNC(=N)N)[C@@H](C)O)C(=O)N[C@@H](CCCCN)C(N)=O (H-RWLRKWTRKRLK-NH2),32,64,64,16,16,16,> 128,8.98,≥ 70,–,–,–,–,–,–
CC[C@H](C)[C@H](NC(=O)[C@H](CCCCN)NC(=O)[C@H](Cc1c[nH]c2ccccc12)NC(=O)[C@H](CCCCN)NC(=O)[C@@H](NC(=O)[C@H](CCCCN)NC(=O)[C@H](Cc1c[nH]c2ccccc12)NC(=O)[C@H](CCCCN)NC(=O)[C@@H](NC(=O)[C@H](CCCCN)NC(=O)[C@@H](N)Cc1c[nH]c2ccccc12)[C@@H](C)CC)[C@@H](C)CC)C(=O)N[C@@H](CCCCN)C(N)=O (H-WKIKWKIKWKIK-NH2),2,2,2,2,2,2,64,32,–,2,1,2,4,2,> 90
CC(C)C[C@H](NC(=O)[C@H](CCCNC(=N)N)NC(=O)[C@H](Cc1c[nH]c2ccccc12)NC(=O)[C@H](CCCNC(=N)N)NC(=O)[C@H](CC(C)C)NC(=O)[C@H](CCCNC(=N)N)NC(=O)[C@H](Cc1c[nH]c2ccccc12)NC(=O)[C@H](CCCNC(=N)N)NC(=O)[C@H](CC(C)C)NC(=O)[C@H](CCCNC(=N)N)NC(=O)[C@@H](N)Cc1c[nH]c2ccccc12)C(=O)N[C@@H](CCCNC(=N)N)C(N)=O (H-WRLRWRLRWRLR-NH2),2,1,2,2,4,2,> 128,128,–,2,2,4,4,1,> 90
CC(C)[C@H](NC(=O)[C@H](CCCNC(=N)N)NC(=O)[C@H](Cc1c[nH]c2ccccc12)NC(=O)[C@H](CCCNC(=N)N)NC(=O)[C@@H](NC(=O)[C@H](CCCCN)NC(=O)[C@H](Cc1c[nH]c2ccccc12)NC(=O)[C@H](CCCNC(=N)N)NC(=O)[C@@H](NC(=O)[C@H](CCCNC(=N)N)NC(=O)[C@@H](N)Cc1c[nH]c2ccccc12)C(C)C)C(C)C)C(=O)N[C@@H](CCCCN)C(N)=O (H-WRVRWKVRWRVK-NH2),2,1,2,2,4,2,> 128,128,–,1,2,4,4,2,> 90
C[C@@H](O)[C@H](NC(=O)[C@H](CCCCN)NC(=O)[C@H](Cc1c[nH]c2ccccc12)NC(=O)[C@H](CCCNC(=N)N)NC(=O)[C@H](Cc1ccccc1)NC(=O)[C@H](CCCNC(=N)N)NC(=O)[C@@H](N)Cc1c[nH]c2ccccc12)C(=O)N[C@@H](CCCNC(=N)N)C(=O)N[C@@H](Cc1c[nH]c2ccccc12)C(=O)N[C@@H](CCCNC(=N)N)C(=O)N[C@@H](Cc1ccccc1)C(=O)N[C@@H](CCCCN)C(N)=O (H-WRFRWKTRWRFK-NH2),2,2,2,4,4,2,> 128,102,–,2,2,4,8,2,> 90
CC(C)[C@H](NC(=O)[C@H](CCCNC(=N)N)NC(=O)[C@H](Cc1c[nH]c2ccccc12)NC(=O)[C@H](CCCNC(=N)N)NC(=O)[C@@H](NC(=O)[C@H](CCCCN)NC(=O)[C@H](Cc1c[nH]c2ccccc12)NC(=O)[C@H](CCCNC(=N)N)NC(=O)[C@@H](NC(=O)[C@H](CCCNC(=N)N)NC(=O)[C@@H](N)Cc1c[nH]c2ccccc12)C(C)C)[C@@H](C)O)C(=O)N[C@@H](CCCCN)C(N)=O (H-WRVRWKTRWRVK-NH2),4,2,4,2,4,4,> 128,80.8,–,4,8,8,32,4,> 90
C[C@@H](O)[C@H](NC(=O)[C@H](CCCNC(=N)N)NC(=O)[C@H](Cc1c[nH]c2ccccc12)NC(=O)[C@H](CCCNC(=N)N)NC(=O)[C@@H](NC(=O)[C@H](CCCNC(=N)N)NC(=O)[C@H](Cc1c[nH]c2ccccc12)NC(=O)[C@H](CCCNC(=N)N)NC(=O)[C@@H](NC(=O)[C@H](CCCNC(=N)N)NC(=O)[C@@H](N)Cc1c[nH]c2ccccc12)[C@@H](C)O)[C@@H](C)O)C(=O)N[C@@H](CCCNC(=N)N)C(N)=O (H-WRTRWRTRWRTR-NH2),8,4,4,4,4,8,> 128,50.8,–,2,32,32,> 64,4,> 90
CC(C)C[C@H](NC(=O)[C@H](CCCCN)NC(=O)[C@H](Cc1c[nH]c2ccccc12)NC(=O)[C@H](CCCCN)NC(=O)[C@H](CC(C)C)NC(=O)[C@H](CCCCN)NC(=O)[C@H](Cc1c[nH]c2ccccc12)NC(=O)[C@H](CCCCN)NC(=O)[C@H](CC(C)C)NC(=O)[C@H](CCCCN)NC(=O)[C@@H](N)Cc1c[nH]c2ccccc12)C(=O)N[C@@H](CCCCN)C(N)=O (H-WKLKWKLKWKLK-NH2),2,2,2,4,4,2,128,50.8,–,2,2,4,4,2,> 90
N=C(N)NCCC[C@H](NC(=O)[C@H](Cc1ccccc1)NC(=O)[C@H](CCCNC(=N)N)NC(=O)[C@H](Cc1c[nH]c2ccccc12)NC(=O)[C@H](CCCNC(=N)N)NC(=O)[C@H](Cc1ccccc1)NC(=O)[C@H](CCCNC(=N)N)NC(=O)[C@H](Cc1c[nH]c2ccccc12)NC(=O)[C@H](CCCNC(=N)N)NC(=O)[C@H](Cc1ccccc1)NC(=O)[C@H](CCCNC(=N)N)NC(=O)[C@@H](N)Cc1c[nH]c2ccccc12)C(N)=O (H-WRFRWRFRWRFR-NH2),1,1,2,4,8,2,64,28.6,–,4,2,2,8,2,> 90

# From ChEMBL document CHEMBL4311942, “Design of Trp-Rich Dodecapeptides with Broad-Spectrum Antimicrobial Potency and Membrane-Disruptive Mechanism” (J Med Chem, 2019)
